From patent US20060084691A1, “Combined treatment with bortezomib and an epidermal growth factor receptor kinase inhibitor” (priority 2004, published 2006)
Structures can show the parent of a compound that is named as a salt.

What was measured:
Assay type in all cases: cell-based, human
[1] = system: ubiquitinated p53 in A549 cells; assay: p53 expression by western blot; settings: A549 cells with wild type p53, single agent
Method: Cells were scraped from the culture, washed twice with PBS, and then suspended in 60-100 μL of Western blot lysis buffer containing 50 mM Tris-HCl (pH 7.5), 250 mM NaCl, 1 mM EDTA, 1 mM EGTA, 1 mM NaF, 1 mM phenylmethylsulfonyl fluoride, 1 mM DTT, 20 μg/mL leupeptin, 20 μg/mL aprotinin, 0.1% Triton X-100 and 1% SDS at 0-4° C. for 15 min. After centrifugation at 1500× g for 10 min at 0° C., the supernatants were collected, and the proteins were separated on 10% SDS-PAGE. After electrophoresis, protein blots were transferred to a nitrocellulose membrane. The membrane was blocked with 5% nonfat milk powder in TBST and incubated overnight with the corresponding primary antibodies at 4° C. After washing three times with TBST, the membrane was incubated at room temperature for 1 h with horseradish peroxidase-conjugated secondary antibody diluted with TBST (1:1000). The detected protein signals were visualized by an enchanced cheiluminescence reaction system (Amersham, Arlington Heights, Ill.).
A549 cells with wild type p53 were exposed to either bortezomib or erlotinib alone, or in combination concomitantly or sequentially 24-hr apart, and p53 expression was assessed by western blot.

H322 = assay: MTT cytotoxicity assay, H322; settings: H322, 72 h
H358 = assay: MTT cytotoxicity assay, H358; settings: H358, 72 h
A549 = assay: MTT cytotoxicity assay, A549; settings: A549, 72 h
H1299 = assay: MTT cytotoxicity assay, H1299; settings: H1299, 72 h
[2] = system: EGF-induced EGFR-phosphorylation; assay: EGF-induced EGFR phosphorylation in sensitive and resistant cells; settings: both sensitive and resistant cells
Method: Cells were scraped from the culture, washed twice with PBS, and then suspended in 60-100 μL of Western blot lysis buffer containing 50 mM Tris-HCl (pH 7.5), 250 mM NaCl, 1 mM EDTA, 1 mM EGTA, 1 mM NaF, 1 mM phenylmethylsulfonyl fluoride, 1 mM DTT, 20 μg/mL leupeptin, 20 μg/mL aprotinin, 0.1% Triton X-100 and 1% SDS at 0-4° C. for 15 min. […] After electrophoresis, protein blots were transferred to a nitrocellulose membrane. The membrane was blocked with 5% nonfat milk powder in TBST and incubated overnight with the corresponding primary antibodies at 4° C. After washing three times with TBST, the membrane was incubated at room temperature for 1 h with horseradish peroxidase-conjugated secondary antibody diluted with TBST (1:1000). The detected protein signals were visualized by an enchanced cheiluminescence reaction system (Amersham, Arlington Heights, Ill.).

SMILES	p53 expression (western blot) [1]	Sensitivity (cytotoxicity) (H322)	Sensitivity (cytotoxicity) (H358)	Sensitivity (cytotoxicity) (A549)	Sensitivity (cytotoxicity) (H1299)	EGF-induced EGFR-phosphorylation [2]
CC(C)C[C@H](NC(=O)[C@H](Cc1ccccc1)NC(=O)c1cnccn1)B(O)O [bortezomib]	accumulation of ubiquitinated p53					
C#Cc1cccc(Nc2ncnc3cc(OCCOC)c(OCCOC)cc23)c1 [erlotinib HCl, [6,7-bis(2-methoxyethoxy)-4-quinazolin-4-yl]-(3-ethynylphenyl) amine]		sensitive	sensitive	resistant	resistant	inhibits
